Measured values as given in patent US7429557B2, “Replacement solvents having improved properties and methods of using the same” (Mainstream Engineering Corporation, priority 2005, dated 2008).
Read-outs that look alike come from different tables or passages of the source.

Experiments:
[1] = Coated metal coupon cleaning, gravimetric; conditions: Krytox, 15 minute immersion, 15 mL
Description: (§1) A sample comprising 25 volume percent (A.) 4-bromo-3-chloro-3,4,4-trifluoro-1-butene and 75 volume percent (B.) 1-chloro-2,2,2-trifluoroethyl difluoromethyl ether was added to several beakers, each containing a metal coupon completely coated with one of the following materials: Mil Spec 83282 hydraulic oil, Mil Spec 7808 engine oil, Krytox fluorocarbon grease and Mil Spec 81322 aviation grease. Two batches were subjected to 15 minute immersion with 15 mL of solvent mixture but one was exposed to ultrasonic vibrations and the other kept static. Afterwards, the coupons were removed and weighed for gravimetric analysis.
as §1, with “50” for “25”, “50” for “75”
(§2) Two batches were subjected to 15 minute immersion with 15 mL of solvent mixture but one was exposed to ultrasonic vibrations and the other kept static. Afterwards, the coupons were removed and weighed for gravimetric analysis.
The compounds (A) 4-bromo-3-chloro-3,4,4-trifluoro-1-butene and (B) 1-chloro-2,2,2-trifluoroethyl difluoromethyl ether, were mixed 50:50 by volume and tested to remove Krytox. The individual components, A and B, remove 17.0% and 98.7%, respectively, of this contaminant after 15 min. with ultrasonic treatment. The mixture removed 99.3% of the same contaminant under the same conditions.

LD50 = conditions: in vivo
From the text: Toxicity is yet another factor which must be considered when selecting second-generation replacement solvents. Parameters such as the lethal dose 50 (LD50), lethal concentration 50 (LC50), cardiac sensitization, skin irritation, and mutagenicity (e.g., via the Ames test) can be used as measures. LDn or LCn abbreviation, where n is the percent lethality, is used for the dose of a toxicant lethal to n % of a test population. […] Cardiac sensitization is a measure of the ability of a compound to cause cardiac arrhythmia under stress.
(§3) Skin irritation is also an important consideration for a solvent.

Skin irritation = conditions: in vivo
From the text: as §3

Chinese hamster = assay: In vitro genotoxicity; conditions: in vitro Chinese hamster oocytes
From the text: as §3

Ames mutagenicity assay = assay: Ames mutagenicity assay
From the text: as §3

[2] = Coated metal coupon cleaning, gravimetric; conditions: 15 minute immersion, 15 mL
Description: as §1
as §1, with “50” for “25”, “50” for “75”
as §2

[3] = listed; cited from earlier work

Row | SMILES | percent contaminant removed ([1]; Ultrasonic) | LD50 (LD50) | skin irritation (Skin irritation) | genotoxicity (Chinese hamster) | Ames mutagenicity assay (Ames mutagenicity assay) | percent contaminant removed ([1]; Static) | percent contaminant removed ([2]; 7808 oil, Static) | percent contaminant removed ([2]; 7808 oil, Ultrasonic) | percent contaminant removed ([2]; 81322 grease, Static) | percent contaminant removed ([2]; 81322 grease, Ultrasonic) | percent contaminant removed ([2]; 83282 oil, Static) | percent contaminant removed ([2]; 83282 oil, Ultrasonic) | skin irritation [3]
1 | C=CC(F)(Cl)C(F)(F)Br (stereo not drawn) [A, 4-bromo-3-chloro-3,4,4-trifluoro-1-butene] | 17.0% | > 40000 mg/kg | moderate to non-irritants | not genotoxic | negative |  |  |  |  |  |  |  | 
2 | FC(F)OC(Cl)C(F)(F)F (stereo not drawn) [Compound B, 1-chloro-2,2,2 trifluoroethyl difluoromethyl ether] | 98.7% | 8100 mg/kg | moderate to non-irritants | not genotoxic | negative |  |  |  |  |  |  |  | 
3 | FC(F)OC(F)(F)C(F)Cl (stereo not drawn) [Compound C, 2-chloro-1,1,2-trifluoroethyl difluoromethyl ether] |  | 13000 mg/kg | moderate to non-irritants | not genotoxic | negative |  |  |  |  |  |  |  | 
4 | COC(C(F)(F)F)C(F)(F)F [E, methyl 2,2,2-trifluoroethyl-1-(trifluoromethyl)ether] |  | > 40000 mg/kg | moderate to non-irritants | not genotoxic | negative |  |  |  |  |  |  |  | 
5 | FC(F)(Cl)C(F)(Cl)Cl [CFC-113, 1,1,2-trichloro-1,2,2-trifluoroethane] | 97.7% |  |  |  |  | 36.2% | 100% | 99.2% | 24.1% | 94.8% | 100% | 100% | mild irritant
